# Source: PubChem BioAssay AID1963973 (Molecular Pharmacology Branch, DTP, NCI, 2024)
# pIC50: −log10 of the molar value.
# Test system: 883617-216-R-J1-PDC tumor spheroids, viability
# Test: Anticancer human tumor 883617-216-R-J1-PDC patient-derived bladder carcinoma cell line growth inhibition [PI3K]
# Details: spheroids with HUVEC and MSC; for pIC50: curve of first compound; for viability, T/C: stronger effect = lower value
# Outline: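 Viability of mixed-cell spheroids was determined after exposure to pairwise combinations, one partner being inavolisib, alpelisib, duvelisib or copanlisib. Highest tested concentration matched clinical Cmax where known and 10 microM where not, descending in half-log steps.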
# [1] = second compound 0.0316 µM, first compound 0.0316 µM
# [2] = second compound 0.0316 µM, first compound 0.1 µM
# [3] = second compound 0.1 µM, first compound 0.0316 µM
# [4] = second compound 0.1 µM, first compound 0.1 µM
# [5] = second compound 0.316 µM, first compound 0.0316 µM
# [6] = second compound 0.316 µM, first compound 0.1 µM
# [7] = second compound 1 µM, first compound 0.0316 µM
# [8] = second compound 1 µM, first compound 0.1 µM
# [9] = second compound 3.16 µM, first compound 0.0316 µM
# [10] = second compound 3.16 µM, first compound 0.1 µM
# [11] = second compound 10 µM, first compound 0.0316 µM
# [12] = second compound 10 µM, first compound 0.1 µM
# 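Further: spheroids exposed to agents for 7 days before the viability read.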
structure (smiles),measurement,setting,value
C[C@@H](NC(=O)c1ncnc(N)c1Cl)c1ncc(C(=O)Nc2cc(C(F)(F)F)c(Cl)cn2)s1 + CC(Nc1ncnc2nc[nH]c12)c1cc2cccc(Cl)c2c(=O)n1-c1ccccc1,pIC50,second compound 0.0316 µM,< 5.00
same,pIC50,second compound 0.1 µM,< 5.00
same,pIC50,second compound 0.316 µM,< 5.00
same,pIC50,second compound 1 µM,< 5.00
same,pIC50,second compound 3.16 µM,< 5.00
same,pIC50,second compound 10 µM,> 7.50
same,"viability, T/C",[1],88.8%
same,"viability, T/C",[2],87.1%
same,"viability, T/C","second compound 0.0316 µM, first compound 0.316 µM",81.4%
same,"viability, T/C","second compound 0.0316 µM, first compound 1 µM",99.8%
same,"viability, T/C","second compound 0.0316 µM, first compound 3.16 µM",78.1%
same,"viability, T/C","second compound 0.0316 µM, first compound 10 µM",64.8%
same,"viability, T/C",[3],90%
same,"viability, T/C",[4],85.6%
same,"viability, T/C","second compound 0.1 µM, first compound 0.316 µM",91.3%
same,"viability, T/C","second compound 0.1 µM, first compound 1 µM",91.8%
same,"viability, T/C","second compound 0.1 µM, first compound 3.16 µM",81.2%
same,"viability, T/C","second compound 0.1 µM, first compound 10 µM",58.2%
same,"viability, T/C",[5],85.5%
same,"viability, T/C",[6],96.2%
same,"viability, T/C","second compound 0.316 µM, first compound 0.316 µM",90.3%
same,"viability, T/C","second compound 0.316 µM, first compound 1 µM",74%
same,"viability, T/C","second compound 0.316 µM, first compound 3.16 µM",78.4%
same,"viability, T/C","second compound 0.316 µM, first compound 10 µM",76.2%
same,"viability, T/C",[7],80.3%
same,"viability, T/C",[8],82.1%
same,"viability, T/C","second compound 1 µM, first compound 0.316 µM",90.4%
same,"viability, T/C","second compound 1 µM, first compound 1 µM",74.4%
same,"viability, T/C","second compound 1 µM, first compound 3.16 µM",75.8%
same,"viability, T/C","second compound 1 µM, first compound 10 µM",50.1%
same,"viability, T/C",[9],58.3%
same,"viability, T/C",[10],56.5%
same,"viability, T/C","second compound 3.16 µM, first compound 0.316 µM",60%
same,"viability, T/C","second compound 3.16 µM, first compound 1 µM",58.2%
same,"viability, T/C","second compound 3.16 µM, first compound 3.16 µM",65.2%
same,"viability, T/C","second compound 3.16 µM, first compound 10 µM",51.7%
same,"viability, T/C",[11],36.9%
same,"viability, T/C",[12],43.9%
same,"viability, T/C","second compound 10 µM, first compound 0.316 µM",45.8%
same,"viability, T/C","second compound 10 µM, first compound 1 µM",44.6%
same,"viability, T/C","second compound 10 µM, first compound 3.16 µM",55.7%
same,"viability, T/C","second compound 10 µM, first compound 10 µM",40.4%
Cn1ncnc1[C@H]1c2n[nH]c(=O)c3cc(F)cc(c23)N[C@@H]1c1ccc(F)cc1 + CC(Nc1ncnc2nc[nH]c12)c1cc2cccc(Cl)c2c(=O)n1-c1ccccc1,pIC50,second compound 0.0316 µM,< 7.00
same,pIC50,second compound 0.1 µM,< 7.00
same,pIC50,second compound 0.316 µM,< 7.00
same,pIC50,second compound 1 µM,< 7.00
same,pIC50,second compound 3.16 µM,7.14
same,pIC50,second compound 10 µM,9.06
same,"viability, T/C","second compound 0.0316 µM, first compound 0.000316 µM",99%
same,"viability, T/C","second compound 0.0316 µM, first compound 0.001 µM",106%
same,"viability, T/C","second compound 0.0316 µM, first compound 0.00316 µM",72.5%
same,"viability, T/C","second compound 0.0316 µM, first compound 0.01 µM",86.4%
same,"viability, T/C",[1],76.8%
same,"viability, T/C",[2],51%
same,"viability, T/C","second compound 0.1 µM, first compound 0.000316 µM",108%
same,"viability, T/C","second compound 0.1 µM, first compound 0.001 µM",101%
same,"viability, T/C","second compound 0.1 µM, first compound 0.00316 µM",72.6%
same,"viability, T/C","second compound 0.1 µM, first compound 0.01 µM",66.1%
same,"viability, T/C",[3],74.9%
same,"viability, T/C",[4],67%
same,"viability, T/C","second compound 0.316 µM, first compound 0.000316 µM",82.4%
same,"viability, T/C","second compound 0.316 µM, first compound 0.001 µM",82.6%
same,"viability, T/C","second compound 0.316 µM, first compound 0.00316 µM",85.1%
same,"viability, T/C","second compound 0.316 µM, first compound 0.01 µM",70.8%
same,"viability, T/C",[5],54.5%
same,"viability, T/C",[6],65.4%
same,"viability, T/C","second compound 1 µM, first compound 0.000316 µM",84.6%
same,"viability, T/C","second compound 1 µM, first compound 0.001 µM",80.1%
same,"viability, T/C","second compound 1 µM, first compound 0.00316 µM",66.1%
same,"viability, T/C","second compound 1 µM, first compound 0.01 µM",62%
same,"viability, T/C",[7],62.5%
same,"viability, T/C",[8],57.5%
same,"viability, T/C","second compound 3.16 µM, first compound 0.000316 µM",81.1%
same,"viability, T/C","second compound 3.16 µM, first compound 0.001 µM",71%
same,"viability, T/C","second compound 3.16 µM, first compound 0.00316 µM",60.1%
same,"viability, T/C","second compound 3.16 µM, first compound 0.01 µM",58.4%
same,"viability, T/C",[9],56.3%
same,"viability, T/C",[10],46.6%
same,"viability, T/C","second compound 10 µM, first compound 0.000316 µM",61.6%
same,"viability, T/C","second compound 10 µM, first compound 0.001 µM",41.7%
same,"viability, T/C","second compound 10 µM, first compound 0.00316 µM",45%
same,"viability, T/C","second compound 10 µM, first compound 0.01 µM",40.5%
same,"viability, T/C",[11],35.5%
same,"viability, T/C",[12],29.4%
